According to patent US7468368B2, “Piperazinylacylpiperidine derivatives, their preparation and therapeutic use thereof” (Sanofi Aventis, priority 2002, dated 2008):
Structures can show the parent of a compound that is named as a salt.

Row | SMILES | melting point [°C]
1 | CC(C)N(C)CC1(c2cccc(C(F)(F)F)c2)CCN(C(=O)CN2CCN(c3cnccn3)CC2)CC1.Cl.Cl.Cl | 185 to 200
2 | COc1cccc(C2(CN)CCN(C(=O)CN3CCN(c4cnccn4)CC3)CC2)c1.O=C(O)C(=O)O.O=C(O)C(=O)O | 120
3 | O=C(CN1CCN(c2ccncn2)CC1)N1CC=C(c2cccc(C(F)(F)F)c2)CC1 (as salt: oxalate) [Compound No. 27, 2-[4-(4-Pyrimidinyl)-1-piperazinyl]-1-[4-[3-(trifluoromethyl)phenyl]-3,6-dihydro-1(2H)-pyridyl]-1-ethanone dioxalate] | 160
4 | NCC1(c2cccc(C(F)(F)F)c2)CCN(C(=O)CN2CCN(c3cnccn3)CC2)CC1 [Compound No. 4, 1-[4-(Aminomethyl)-4-[3-(trifluoromethyl)phenyl]-1-piperidyl]-2-[4-(2-pyrazinyl)-1-piperazinyl]-1-ethanone] | 152 to 153
5 | O=C(CN1CCN(c2cnccn2)CC1)N1CCC(CO)(c2cccc(C(F)(F)F)c2)CC1 [Compound No. 32, 1-[4-(Hydroxymethyl)-4-[3-(trifluoromethyl)phenyl]-1-piperidyl]-2-[4-(2-pyrazinyl)-1-piperazinyl]-1-ethanone] | 223
6 | CN(C)CC1(c2cccc(C(F)(F)F)c2)CCN(C(=O)CN2CCN(c3cnccn3)CC2)CC1 [Compound No. 33, 1-[4-[(Dimethylamino)methyl]-4-[3-(trifluoromethyl)phenyl]-1-piperidyl]-2-[4-(2-pyrazinyl)-1-piperazinyl]-1-ethanone] | 118
7 | CNCC1(c2cccc(C(F)(F)F)c2)CCN(C(=O)CN2CCN(c3cnccn3)CC2)CC1 [Compound No. 57, 1-[4-[(Methylamino)methyl]-4-[3-(trifluoromethyl)phenyl]-1-piperidyl]-2-[4-(2-pyrazinyl)-1-piperazinyl]-1-ethanone] | 137 to 139
8 | NCC1(c2cccc(Cl)c2)CCN(C(=O)CN2CCN(c3cnccn3)CC2)CC1 [Compound No. 65, 1-[4-(Aminomethyl)-4-(3-chlorophenyl)-1-piperidyl]-2-[4-(2-pyrazinyl)-1-piperazinyl]-1-ethanone] | 138 to 139
